Data set [1] deals with worker C. formosanus termites. The data set can be described thus: Dose-response feeding assay (termite mortality on treated filter paper). From the text:
Worker C. formosanus were collected from Brechtel Park, New Orleans, La. by methods known in the art. Bait crates (open-mesh plastic containers) filled with southern yellow pine or spruce-pine-fir sapwood were arranged into a lattice and buried near a C. formosanus infested tree and collected after 3 to 9 weeks. Termite-containing crates were held in 250-liter plastic garbage cans kept at room temperature (26-28 C) and 70-80% relative humidity with the original food source. Termites were collected from New Orleans on 13 Jun. 2006 (collection group A); 9 Aug. 2006 (collection group B); 1 Mar. 2008 (collection group C); 9 May 2008 (collection group D); 20 May 2008 (collection group E); 20 Mar. 2009 (collection group F); 29 May 2009 (collection group G) and 11 May 2010 (collection group H); 18 Aug. 2012 (collection group I); May 2014 (collection group J); August 2014 (collection group K). The termite collection procedure was tapping infested wood sticks into clean plastic containers where termites were collected on moistened paper towels.
(§1) 2-phospho-myo-inositol (dicyclohexylamine salt), glycerol-3-phosphate (dicyclohexylamine salt), dicyclohexylamine phosphate, monocyclohexylamine phosphate, and neat cyclohexylamine were screened for termiticide activity as follows: test compounds were applied to 42.5 mm×3 μm filter papers, in 60×15 mm plastic Petri dishes, in a solution of 1 mg of test compound per 10 μL of distilled water. Doses of 2.5 mg (160.2 μg/mm^3 of filter paper), 5 mg (320.4 μg/mm^3) 10 mg (640.8 μg/mm^3), and 20 mg (1281.7 μg/mm^3) of 2-phospho-myo-inositol were examined. Following filter paper treatment distilled water was added to bring the total volume applied to the filter papers to 300 μL, using 300 μL of distilled water as control. Cyclohexylamine was applied to the paper diluted in amounts of 300 μL, in concentrations ranging from 0.626 to 10.2 μg/mm^3. To prevent desiccation, approximately 50 μL of distilled water was applied to filter paper throughout the trials every third day, or upon observing that a filter paper disc was relatively dry. To test whether termite mortality was induced by consumption of the cyclohexylamine-treated paper, or whether vapor presence of cyclohexylamine was responsible for the toxicity, we compared addition of cyclohexylamine to both paper and fiberglass filters—the latter of which they will not consume. In addition to pure cyclohexylamine, dicyclohexylamine phosphate and monocyclohexylamine phosphate were tested for toxicity. Dicyclohexylamine phosphate was tested in concentrations ranging from 0.348 to 348 μg/mm^3, and monocyclohexylamine phosphate was tested in concentrations ranging from 2.28 to 228 μg/mm^3. Replicates of twenty worker termites were incubated in the dark in a parafilm-sealed Petri dish at room temperature for 2 weeks. Termite mortality was recorded daily in triplicate experiments. An analysis of variance (ANOVA) (SAS ANOVA procedure) followed by Tukey's Studentized range test was used to evaluate statistical differences among groups (Institute 1989). All mortality data were judged at a=0.05.
(§2) Termites from collection group B were used in the 2-Phospho-Myo-Inositol dose mortality assay. Termites from collection groups C and D were used in both the dicyclohexylamine-2-phophoinositol, and dicylclohexyalmine-glycerol-3-phosphate dose mortality assay. Termites from collection group I were used in cyclohexylamine dose mortality assays. Termites from collection […] in the dicyclohexylamine phosphate and neat cyclohexylamine volatility dose mortality assays. Termites from collection group K were used in the monocyclohexylamine phosphate dose mortality assay.

The test system of data set [2] is worker C. formosanus termites. The data set can be described thus: Cellulose (filter paper) consumption. It is filed as in vivo, Coptotermes formosanus. On the procedure: In dose mortality experiments where paper consumption data are shown, filter papers were weighed in ambient humidity prior to sugar application. After 14 days termites were removed from the dishes and the filter paper from each replicate was cleaned, washed of residual carbohydrate and dried at 100 C for 24 h. After drying and humidity equilibration for 24 h, filter papers were reweighed for determination of paper consumption. […] All consumption data were judged at a=0.05.

The subject of data set [3] is worker C. formosanus termites. Description: Cyclohexylamine volatile effects (cellulose paper vs fiberglass filter mortality). To be noted: 600 μg. On the procedure:
as §1, §2

SMILES strings stand for the structures.

As a reminder, the mortality is the percentage killed. High values mean a strong lethal effect, low ones a weak lethal effect. For `C1CCC(NC2CCCCC2)CC1.O=P(O)(O)O` [Dicyclohexylamine Phosphate, Dicyclohexylamine phosphate], the “day on which mortality became significantly higher” value in data set [1] (0.348 μg/mm^3) is “three”. Moreover, the mortality was determined as 28% in data set [1] (0.348 μg/mm^3, day 14); 38% in data set [1] (4.90 μg/mm^3, day 14); 36% in data set [1] (9.8 μg/mm^3, day 14); 45% in data set [1] (68.88 μg/mm^3, day 14); 100% in data set [1] (348 μg/mm^3, first day). Moreover, the mortality versus control result in data set [1] (1.22 μg/mm^3) is “The two highest dosage groups, 4.90 and 9.80 μg/mm^3, displayed mortality significantly different than the control”; in data set [1] (2.45 μg/mm^3), “The two highest dosage groups, 4.90 and 9.80 μg/mm^3, displayed mortality significantly different than the control”. Also, the figures for the “day on which mortality became significantly different” value in data set [1] (4.90 μg/mm^3), in data set [1] (9.8 μg/mm^3) and in data set [1] (68.88 μg/mm^3) were “three”, “four” and “five”, respectively. Besides, the “mortality versus control group” value in data set [1] (17.22 μg/mm^3) and in data set [1] (34.44 μg/mm^3) was “significantly different than the control group” throughout.
Turning to `NC1CCCCC1.O=P(O)(O)O` [Monocyclohexylamine Phosphate, Monocyclohexylamine phosphate], the mortality versus control result in data set [1] (2.28 μg/mm^3) and in data set [1] (22.8 μg/mm^3) was “not significantly different from the control” throughout. The “day on which mortality became significantly different” value in data set [1] (228 μg/mm^3) is 10 days. Further, the mortality in data set [1] (228 μg/mm^3, day 10) is on record as 38%; in data set [1] (228 μg/mm^3, day 14), 100%.
With `NC1CCCCC1` [Neat Cyclohexylamine, cyclohexylamine], the “consumption rate per termite versus control” value in data set [2] (0.626 μg/mm^3, 14 days) was “did not result in a consumption rate per termite significantly different from the control group”. Also, the “consumption rate (per surviving termites) versus control” value in data set [2] (0.822 μg/mm^3, 14 days) is listed as “significantly lower than the control group”; in data set [2] (1.253 μg/mm^3, 14 days) it was “significantly lower than the control group”; in data set [2] (2.510 μg/mm^3, 14 days), “significantly lower than the control group”. For the same compound, the mortality versus control result in data set [1] (0.62 μg/mm^3) is “only the highest dosage group, 2.51 μg/mm^3, displayed significantly different mortality”; in data set [1] (0.82 μg/mm^3), “only the highest dosage group, 2.51 μg/mm^3, displayed significantly different mortality”; in data set [1] (1.0 μg/mm^3 (lowest dosage of 1.0, 1.7, 2.4)), “Only the two highest dosage groups displayed mortality significantly different from the control”; in data set [1] (1.25 μg/mm^3) it was “only the highest dosage group, 2.51 μg/mm^3, displayed significantly different mortality”. Besides, the “day on which mortality became significant” value in data set [1] (1.7 μg/mm^3) was “eight”; in data set [1] (2.4 μg/mm^3), “five”. The mortality in data set [1] (1.7 μg/mm^3, day 14) is 33%; in data set [1] (2.4 μg/mm^3, day 14), 41%; in data set [1] (2.51 μg/mm^3, day 14) it was 63%; in data set [1] (2.51 μg/mm^3, day six) it was 16%; in data set [1] (3.39 μg/mm^3, day three), 100%; in data set [1] (5.08 μg/mm^3, within one to three days), 100%. The mortality in data set [1] (10.2 μg/mm^3, day one) was 100%; in data set [3] (treatment of cellulose, day 14), 45%; in data set [3] (treatment of cellulose, day eight), 25%. In addition, the entries for the “day on which mortality became significantly different” value in data set [1] (2.51 μg/mm^3) and in data set [3] (treatment of cellulose) were “six” and “eight”, respectively. Also, the “mortality versus corresponding control group” value in data set [3] (treatment of fiberglass) is on record as “did not result in mortality significantly different than that of the corresponding control group”.
In the case of `C1CCC(NC2CCCCC2)CC1.O=P(O)(O)OCC(O)CO` [glycerol-3-phosphate (dicyclohexylamine salt)], the “day on which mortality became significant” value in data set [1] (higher dosage group, 640.8 μg/mm^3) was determined as 5 days; in data set [1] (lower dosage group, 320.4 μg/mm^3), 12 days. In addition, the mortality in data set [1] (higher dosage group, 640.8 μg/mm^3, day 12) was found to be 98%; in data set [1] (lower dosage group, 320.4 μg/mm^3, day 14) it was 71%.
